Source: patent US9205073B2, “Method for treating virus infection using derivative of aniline” (CHINA MEDICAL UNIVERSITY, priority 2014, dated 2015)

Key:
[1] = test system: JEV T1P1; assay: Apoptosis test (Annexin V/PI flow cytometry), JEV T1P1-infected TE671 cells; type: cell-based, Japanese encephalitis virus; details: JEV T1P1 infection 36 hours, compound 125 μM; infected without compound 20.1%
Experimental: BHK-21 cells and/or TE671cells were separately cultured in a 24-well culture plate, with an initial density of 3×10^4 per well, and with 1 ml of 2% FBS-containing MEM medium per well. The cells were incubated in an incubator (37° C., 5% CO2) overnight, and the medium was removed until the cells adhered to the plate. Then, fresh 2% FBS-containing MEM medium was simultaneously added into each well of the culture plate. The cells were infected with a JEV T1P1 virus strain, wherein the amount of JEV T1P1 used to infect BHK-21 cells was a multiplicity of infection (M.O.I.)=0.1, and the amount of JEV T1P1 used to infect TE671 cells was M.O.I.=0.05. Different concentrations of compound 1 (final concentrations were 0, 2.5, 25 and 125 μM, respectively) were added into different wells. The culture plate was placed into an incubator (37° C., 5% CO2) and maintained therein.
BHK-21 cells and TE 671 cells were washed with PBS after being infected with the JEV T1P1 virus strain for 36 hours in the above experiment (1). Then, PBS was removed. Trypsin-EDTA (150 μl) was added into each well. The cells were incubated in an incubator at 37° C. for 3 minutes. Then, 1 ml MEM medium was added into each well to neutralize EDTA. […] The cells were maintained in the dark for 5 to 10 minutes, and then analyzed by flow cytomerty.

[2] = MTT assay, cell survival / CC50 in RD cells; type: cell-based; details: human, read-out: concentration of 50% cytotoxicity (CC50)
Experimental: In this example, 3-(4,5-dimethylthiazol-2-yl)-2,5-diphenyl tetrazolium bromide (MTT) was used to determine if the survival rate of BHK-21 cells, TE671cells and RD cells would be influenced when being treated with different concentrations of compound 1 prepared in Example 1. The concentration of 50% cytotoxicity (CC50) of compound 1 in BHK-21 cells, TE671cells and RD cells was also calculated.
MTT is a water-soluble tetrazolium salt which can react in the mitochondrial respiratory chain in living cells to metabolize and reduce the tetrazolium bromide shown in the structure of MTT and to form an water-insoluble purple crystal formazan under the reaction of succinate dehydrogenase (SDH) and cytochrome c (cyt c). The amount of the produced crystal is directly proportional to the number of living cells (because the SDH will disappear from dead cells, and thus, the MTT cannot be reduced). Furthermore, a mitochondrium is an organelle in cells that is most sensitive to the environment, and thus, the MTT assay can serve as a marker for the survival rate of cells treated by the drug.
BHK-21 cells, TE671cells and RD cells were cultured in a 96-well culture plate, respectively, with an initial density of 3×10^3 per well, and with 100 μl of 2% FBS-containing MEM medium per well. […] The absorbances of the samples were measured by ELISA at a wavelength of 570/630 nm.

[3] = test system: DEN2; assay: Dengue virus infection-induced cytopathic effect in BHK-21 cells; type: cell-based, dengue virus type 2; details: infected 72 hours, M.O.I.=0.1, compound 25 μM
Experimental: BHK-21 cells were cultured in a 24-well culture plate at an initial density of 3×10^4 per well with 1 ml of 2% FBS-containing MEM medium per well. The cells were incubated in an incubator (37° C., 5% CO2) overnight, and the medium was removed until the cells adhered to the plate. Then, 1 ml of fresh 2% FBS-containing MEM medium was simultaneously added into each well of the culture plate; the cells were infected with the DEN2 virus strain (M.O.I.=0.1); different concentrations of compound 1 (the final concentrations were 0, 2.5 and 25 μM, respectively) were added into different wells. BHK-21 cells were incubated in an incubator (37° C., 5% CO2) for 72 hours, and then their morphology was observed by photography.

[4] = test system: EV71; assay: Enterovirus infection-induced cytopathic effect in RD cells; type: cell-based, enterovirus type 71; details: infected 36 hours, M.O.I.=0.1, compound 125 μM
Experimental: RD cells were cultured in a 24-well culture plate at an initial density of 3×10^4 per well with 1 ml of 2% FBS-containing MEM medium per well. The cells were incubated in an incubator (37° C., 5% CO2) overnight. The medium was removed, and then 1 ml of fresh 2% FBS-containing MEM medium was simultaneously added into each well. The RD cells were infected with EV71 virus strain (M.O.I.=0.1). Different concentrations of compound 1 (final concentrations were 0, 2.5, 25 and 125 μM) were added into different wells. The RD cells were incubated in an incubator (37° C., 5% CO2) for 36 hours, and then their morphology was observed by photography.

SMILES: CCOC(=O)C1=C(Nc2cc(C)cc(C)c2)OCC1=O [Compound 1, ethyl 2-(3′,5′-dimethylanilino)-4-oxo-4,5-dihydrofuran-3-carboxylate]
- ratio of TE671 cells getting into late apoptosis [1]: 4.7%
- CC50 at 48 h [2]: 222 µM
- DEN2-induced cytopathic effect [3]: effectively inhibited
- EV71-induced cytopathic effect [4]: effectively inhibited
